Values quoted from earlier work, collected in patent EP0974361A1, “METHOD OF USING ANTACID AGENT AND PHARMACEUTICAL PREPARATION CONTAINING ANTACID AGENT” (CHUGAI SEIYAKU KABUSHIKI KAISHA, priority 1996, dated 1997).
Like-named read-outs stand apart in the source and are kept apart here.

## CNC(=C[N+](=O)[O-])NCCSCc1ccc(CN(C)C)o1 [ranitidine]
In vivo
  bioavailability dropped by: 29%

## CC(C)Cc1ccc(C(C)C(=O)O)cc1 (centres unmarked) [ibuprofen]
Used along with sucralfate (Anaya et al.)
  absorption: reduced and retarded

## C[C@H]1O[C@@H](O[C@H]2[C@@H](O)C[C@H](O[C@H]3[C@@H](O)C[C@H](O[C@H]4CC[C@@]5(C)[C@H](CC[C@@H]6[C@@H]5C[C@@H](O)[C@]5(C)[C@@H](C7=CC(=O)OC7)CC[C@]65O)C4)O[C@@H]3C)O[C@@H]2C)C[C@H](O)[C@@H]1O [digoxin]
Used along with sucralfate (Giesing et al.)
  drop in adsorption: 19%

## CC(=O)N1CCN(c2ccc(OCC3COC(Cn4ccnc4)(c4ccc(Cl)cc4Cl)O3)cc2)CC1 (centres unmarked) [ketoconazole]
Used along with sucralfate (Goss et al.; Maconochie et al.)
  bioavailability dropped by: 21%

## CN/C(=N/CCSCc1nc[nH]c1C)NC#N [cimetidine]
Simultaneous administration of sucralfate (Yoshida et al.)
  AUC: drop
